# Source: PMC6893700 (Viruses, 2019)
# Where two headings read alike, the source gives them in different places.
# Legend:
# ZIKV strain PAN2016 [1] = test: Plaque reduction inhibition assay, ZIKV PAN2016 in Vero E6 cells; format: cell-based; conditions: Zika virus
# ZIKV strain R116265 = test: Plaque reduction inhibition assay, ZIKV R116265 in Vero E6 cells; format: cell-based; conditions: Zika virus, Vero C1008
# ZIKV strain PAN2015 = test: Plaque reduction inhibition assay, ZIKV PAN2015 in Vero E6 cells; format: cell-based; conditions: Zika virus, Vero C1008
# ZIKV strain FLR [2] = test: Plaque reduction inhibition assay, ZIKV FLR in Vero E6 cells; format: cell-based; conditions: Zika virus
# ZIKV strain R103451 = test: Plaque reduction inhibition assay, ZIKV R103451 in Vero E6 cells; format: cell-based; conditions: Zika virus
# ZIKV strain PRVABC59 [3] = test: Plaque reduction inhibition assay, ZIKV PRVABC59 in Vero E6 cells; format: cell-based; conditions: Zika virus
# ZIKV strain PLCal_ZV = test: Plaque reduction inhibition assay, ZIKV PLCal_ZV in Vero E6 cells; format: cell-based; conditions: Zika virus
# ZIKV strain IbH 30656 = test: Plaque reduction inhibition assay, ZIKV IbH 30656 in Vero E6 cells; format: cell-based; conditions: Zika virus
# [4] = system: ZIKV mosquito strain MEX 2–81; test: Plaque reduction inhibition assay, ZIKV MEX 2–81 in Vero E6 cells; format: cell-based; conditions: Zika virus
# [5] = system: ZIKV rhesus macaque strain MR 766; test: Plaque reduction inhibition assay, ZIKV MR 766 in Vero E6 cells; format: cell-based; conditions: Zika virus, Vero C1008, in Macaca mulatta, read-out: IC50 MR 766
# DENV-1-V1792 = test: Plaque reduction inhibition assay, DENV-1 in LLC-MK2 cells; format: cell-based; conditions: Dengue virus, DENV1
# DENV-2-V594 = test: Plaque reduction inhibition assay, DENV-2 in LLC-MK2 cells; format: cell-based; conditions: Dengue virus, DENV2
# DENV-3-V1043 = test: Plaque reduction inhibition assay, DENV-3 in LLC-MK2 cells; format: cell-based; conditions: Dengue virus, DENV3
# DENV-4-PR 06-65-740 = test: Plaque reduction inhibition assay, DENV-4 in LLC-MK2 cells; format: cell-based; conditions: Dengue virus, DENV4
# ZIKV (PAN2016) = test: Time-of-addition experiment, ZIKV PAN2016 in Vero E6 cells; format: cell-based, Zika virus (ZIKV); conditions: for inhibition at 30 µM: Zika virus; for inhibition of ZIKV infection, step e: penetration (membrane fusion): cells with ZIKV 4 °C 1 h; for inhibition of ZIKV infection, step e: penetration (membrane fusion) / inhibition of ZIKV infection, step f: postentry stage: then natural product 37 °C 1 h; for inhibition of ZIKV infection, step f: postentry stage: cells with ZIKV 37 °C 1 h; for inhibition of ZIKV infection, step b: pretreatment of cells: cells with natural product 37 °C 1 h before ZIKV
# [6] = target: ZIKV full-length E protein (Zika virus, UniProt A0A024B7W1); format: binding; conditions: ELISA
# Chain of ZIKV full-length E protein (A0A024B7W1 291-794): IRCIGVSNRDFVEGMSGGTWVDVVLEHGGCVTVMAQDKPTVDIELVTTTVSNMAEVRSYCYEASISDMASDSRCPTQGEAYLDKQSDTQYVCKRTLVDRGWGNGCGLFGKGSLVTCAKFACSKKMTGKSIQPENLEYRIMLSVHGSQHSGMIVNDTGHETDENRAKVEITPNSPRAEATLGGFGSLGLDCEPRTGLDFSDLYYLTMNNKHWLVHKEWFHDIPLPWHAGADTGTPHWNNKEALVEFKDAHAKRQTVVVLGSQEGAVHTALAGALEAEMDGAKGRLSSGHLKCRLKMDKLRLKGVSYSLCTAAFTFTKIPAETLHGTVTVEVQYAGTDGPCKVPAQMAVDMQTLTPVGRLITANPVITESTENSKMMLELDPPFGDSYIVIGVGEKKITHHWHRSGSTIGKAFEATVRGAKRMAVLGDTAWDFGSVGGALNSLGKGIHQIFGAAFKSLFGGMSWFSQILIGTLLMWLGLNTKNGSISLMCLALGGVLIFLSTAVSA
# [7] = target: T1, ZIKV envelope protein domain III (EDIII) protein (Zika virus, UniProt A0A024B7W1); format: binding; conditions: ELISA
# T1 construct: E residues 298–409 fused with a C-terminal human Fc; made in house
# T1 sequence (A0A024B7W1 588-699): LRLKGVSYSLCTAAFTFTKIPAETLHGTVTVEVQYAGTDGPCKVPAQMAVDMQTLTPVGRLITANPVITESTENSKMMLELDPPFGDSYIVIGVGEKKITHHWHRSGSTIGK
# ZIKV strain PAN2016 [8] = format: cell-based, Zika virus (ZIKV); conditions: for IC50: Zika virus
# ZIKV strain FLR [9] = format: cell-based, Zika virus (ZIKV); conditions: for IC50: Zika virus
# ZIKV strain PRVABC59 [10] = format: cell-based, Zika virus (ZIKV)
# Vero E6 cells [11] = system: Vero E6 cells
# in vitro [12] = conditions: African green monkey
# in vitro [13] = conditions: rhesus monkey
# in vitro [14] = conditions: African green monkey; remark: listed apart in the source
# Vero E6 cells [15] = test: Combinatorial cytotoxicity of gossypol with other natural products, CCK8; conditions: Vero E6, (CC50 alone)/(CC50 in the mixture)—1
# nine ZIKV strains = test: Plaque reduction inhibition assay, nine additional ZIKV strains (summary); format: cell-based; conditions: Zika virus, Vero C1008; range over nine additional ZIKV strains, Vero E6 cells; read-out: IC50 values against all nine ZIKV strains tested
# [16] = target: binding between ZIKV EDIII protein and EDIII-specific human mAbs (Zika virus, UniProt A0A024B7W1); conditions: ELISA; no binding between ZKA78 and EDIII
# Chain of binding between ZIKV EDIII protein and EDIII-specific human mAbs (A0A024B7W1 588-699): as above
# Vero E6 cells [17] = test: Initial screening: cytotoxicity observed under a microscope; conditions: initial screening at 20 µM
# [18] = gossypol 15 µM, curcumin 30 µM, digitonin 7.5 µM, conessine 30 µM
# [19] = Vero C1008, read-out: IC50 Alone
compound,measurement,setting,value
"COc1cc(/C=C/C(=O)CC(=O)/C=C/c2ccc(O)c(OC)c2)ccc1O [Curcumin, curcumin]",IC90,"ZIKV strain PAN2016 [1]; Vero C1008, 90% plaque reduction, Vero E6 cells, read-out: IC90 against ZIKV PAN2016 strain",~47.7 µM
same,IC50,"ZIKV strain PAN2016 [1]; Vero C1008, plaque reduction, Vero E6 cells, read-out: IC50 PAN2016",13.7 ± 0.72 µM
same,IC50,ZIKV strain R116265,14 ± 0.15 µM
same,IC50,ZIKV strain PAN2015,13.7 ± 0.37 µM
same,IC50,"ZIKV strain FLR [2]; Vero C1008, plaque reduction, Vero E6 cells, read-out: IC50 FLR",16.6 ± 0.34 µM
same,IC50,"ZIKV strain R103451; Vero C1008, plaque reduction, Vero E6 cells, read-out: IC50 R103451",11.2 ± 0.37 µM
same,IC50,"ZIKV strain PRVABC59 [3]; Vero C1008, plaque reduction, Vero E6 cells",12.8 ± 0.35 µM
same,IC50,"ZIKV strain PLCal_ZV; Vero C1008, plaque reduction, Vero E6 cells, read-out: IC50 PLCal_ZV",10.8 ± 0.73 µM
same,IC50,"ZIKV strain IbH 30656; Vero C1008, plaque reduction, Vero E6 cells, read-out: IC50 IbH 30656",13.6 ± 0.31 µM
same,IC50,"[4]; Vero C1008, plaque reduction, Vero E6 cells, read-out: IC50 MEX 2–81",5.62 ± 0.52 µM
same,IC50,"[5]; plaque reduction, Vero E6 cells",11.4 ± 0.29 µM
same,IC50,DENV-1-V1792,9.37 ± 0.47 µM
same,IC50,DENV-2-V594,3.07 ± 0.07 µM
same,IC50,DENV-3-V1043,2.09 ± 0.12 µM
same,IC50,DENV-4-PR 06-65-740,4.83 ± 0.24 µM
same,inhibition at 30 µM,"ZIKV (PAN2016); Vero C1008, 1 h, read-out: inhibition of ZIKV infection, step c: cotreatment at 4 °C (attachment)",75 to 100%
same,inhibition at 30 µM,"ZIKV (PAN2016); Vero C1008, 1 h, read-out: inhibition of ZIKV infection, step d: cotreatment at 37 °C",75 to 100%
same,inhibition at 30 µM,"ZIKV (PAN2016); Vero C1008, read-out: inhibition of ZIKV infection, step a: pretreatment of ZIKV",75 to 100%
same,"inhibition of ZIKV infection, step e: penetration (membrane fusion)",ZIKV (PAN2016); [18],low to no impact
same,"inhibition of ZIKV infection, step f: postentry stage",ZIKV (PAN2016); [18],low to no impact
same,"inhibition of ZIKV infection, step b: pretreatment of cells",ZIKV (PAN2016); [18],low to no impact
same,binding to ZIKV full-length E protein (in words),[6],much lower binding affinity
same,binding to ZIKV EDIII protein (in words),[7],much lower binding affinity
same,Fold of Enhancement (natural product with gossypol),"ZIKV strain PAN2016 [8]; ZIKV PAN2016, (IC50 alone)/(IC50 in the mixture)—1",2.60
same,CI (combination index) of gossypol with the named natural product,"ZIKV strain PAN2016 [8]; ZIKV PAN2016, CI < 1 synergy",0.52
same,IC50,"ZIKV strain PAN2016 [8]; Vero C1008, ZIKV PAN2016, Vero E6, natural product without combination, read-out: IC50 Alone",13.2 ± 0.81 µM
same,Fold of Enhancement (natural product with gossypol),"ZIKV strain FLR [9]; ZIKV FLR, (IC50 alone)/(IC50 in the mixture)—1",2.84
same,CI (combination index) of gossypol with the named natural product,"ZIKV strain FLR [9]; ZIKV FLR, CI < 1 synergy",0.49
same,IC50,"ZIKV strain FLR [9]; Vero C1008, ZIKV FLR, Vero E6, natural product without combination, read-out: IC50 Alone",17.05 ± 0.08 µM
same,Fold of Enhancement (natural product with gossypol),"ZIKV strain PRVABC59 [10]; ZIKV PRVABC59, (IC50 alone)/(IC50 in the mixture)—1",5.46
same,CI (combination index) of gossypol with the named natural product,"ZIKV strain PRVABC59 [10]; ZIKV PRVABC59, CI < 1 synergy",0.30
same,IC50,"ZIKV strain PRVABC59 [10]; Zika virus, Vero C1008, ZIKV PRVABC59, Vero E6, natural product without combination, read-out: IC50 Alone",12.46 ± 0.05 µM
same,cytotoxicity in Vero E6 cells observed under a microscope,Vero E6 cells [11],no obvious cytotoxicity
same,CC50 at 3 days,in vitro [12],52.86 ± 0.52 µM
same,CC50 at 3 days,in vitro [13],59.4 ± 1.18 µM
same,CC50 at 3 days,in vitro [14],53.1 ± 1.83 µM
same,Fold of Enhancement of cytotoxicity (natural product with gossypol),Vero E6 cells [15],0.28
same,Fold of Enhancement of cytotoxicity (natural product with gossypol),Vero E6 cells [15]; listed as curcumin,not enhanced
"Cc1cc2c(C(C)C)c(O)c(O)c(C=O)c2c(O)c1-c1c(C)cc2c(C(C)C)c(O)c(O)c(C=O)c2c1O [Gossypol, gossypol]",IC50,"ZIKV strain PAN2016 [1]; Vero C1008, read-out: IC50 PAN2016",3.48 ± 0.03 µM
same,IC90,"ZIKV strain PAN2016 [1]; Vero C1008, read-out: IC90 against ZIKV PAN2016 strain",~6.91 µM
same,IC50,"ZIKV strain FLR [2]; Vero C1008, read-out: IC50 FLR",0.21 ± 0.01 µM
same,IC50,"ZIKV strain R103451; Vero C1008, read-out: IC50 R103451",2.28 ± 0.1 µM
same,IC90,"ZIKV strain PRVABC59 [3]; Vero C1008, read-out: IC90 against ZIKV strain PRVABC59",~8.81 µM
same,IC50,"ZIKV strain PLCal_ZV; Vero C1008, read-out: IC50 PLCal_ZV",1.98 ± 0.07 µM
same,IC50,"ZIKV strain IbH 30656; Vero C1008, read-out: IC50 IbH 30656",3.31 ± 0.11 µM
same,IC50,"[4]; Vero C1008, read-out: IC50 MEX 2–81",2.79 ± 0.01 µM
same,IC50,[5],3.75 ± 0.01 µM
same,IC50,DENV-1-V1792,1.87 ± 0.01 µM
same,IC50,DENV-2-V594,1.89 ± 0.21 µM
same,IC50,DENV-3-V1043,3.7 ± 0.59 µM
same,IC50,DENV-4-PR 06-65-740,2.6 ± 0.12 µM
same,"inhibition of ZIKV infection, step e: penetration (membrane fusion)",ZIKV (PAN2016); [18],maintained its infectivity
same,"inhibition of ZIKV infection, step f: postentry stage",ZIKV (PAN2016); [18],maintained its infectivity
same,"inhibition of ZIKV infection, step b: pretreatment of cells",ZIKV (PAN2016); [18],maintained its infectivity
same,"inhibition of ZIKV infection, step c: cotreatment at 4 °C (attachment)","ZIKV (PAN2016); cells, ZIKV and natural product 4 °C 1 h, gossypol 15 µM, curcumin 30 µM, digitonin 7.5 µM, conessine 30 µM",maintained its infectivity
same,"inhibition of ZIKV infection, step d: cotreatment at 37 °C","ZIKV (PAN2016); cells, ZIKV and natural product 37 °C 1 h, gossypol 15 µM, curcumin 30 µM, digitonin 7.5 µM, conessine 30 µM",maintained its infectivity
same,"inhibition of ZIKV infection, step a: pretreatment of ZIKV","ZIKV (PAN2016); natural product with ZIKV 37 °C 1 h before cells, gossypol 15 µM, curcumin 30 µM, digitonin 7.5 µM, conessine 30 µM",completely lost its infectivity
same,IC50,ZIKV strain PAN2016 [8]; [19],3.79 ± 0.01 µM
same,IC50,ZIKV strain FLR [9]; [19],0.26 ± 0.01 µM
same,IC50,nine ZIKV strains,0.21 to 4.31 µM
same,inhibition with control mAb ZKA78 (EDI/DII-specific),[16],no obvious inhibition
same,CC50 at 3 days,in vitro [12],14.2 ± 0.74 µM
same,CC50 at 3 days,in vitro [13],14.5 ± 0.59 µM
same,CC50 at 3 days,in vitro [14],14.8 ± 0.42 µM
same,cytotoxicity in Vero E6 cells observed under a microscope,Vero E6 cells [17],no obvious cytotoxicity
